Measured values from PubChem BioAssay AID192 (DTP/NCI, 2004).
“And” between values parts separate entries of the source, which are not always exact repeats. Identical values can stand only once. Inconclusive results and toxic doses are left out. Rule for the calls: active = survival T/C of 150% or more; inactive = T/C below 125% in these data. Peptide text beside a SMILES is read from it. * marks the point of attachment. Cbz = O=C(OCc1ccccc1)*; CH2Cl = ClC*

Test system: BDF1 mice, B16 melanoma ip, median survival T/C
Test: NCI In Vivo Anticancer Drug Screen. Data for tumor model B16 Melanoma (intraperitoneal) in B6D2F1 (BDF1) mice
Conditions: endpoint: median survival time, higher = longer survival
Protocol: The antitumor activity of compounds was measured in mice bearing transplantable tumors. Survival or tumor size were measured and the results are expressed as the measurement made in the treated group (T) divided by the measurement made in the vehicle treated control group (C). The tumor model used in this assay is B16 Melanoma (intraperitoneal) in B6D2F1 (BDF1) mice

[1] = dose: 50.0 mg/kg/injection, schedule: Q01DX009 (ip), vehicle: Klucel (hydroxypropylcellulose) (HPC)
[2] = dose: 100.0 mg/kg/injection, schedule: Q01DX009 (ip), vehicle: Klucel (hydroxypropylcellulose) (HPC)
[3] = dose: 200.0 mg/kg/injection, schedule: Q01DX009 (ip), vehicle: Klucel (hydroxypropylcellulose) (HPC)
[4] = dose: 25.0 mg/kg/injection, schedule: Q01DX009 (ip), vehicle: saline
[5] = dose: 50.0 mg/kg/injection, schedule: Q01DX009 (ip), vehicle: saline
[6] = dose: 100.0 mg/kg/injection, schedule: Q01DX009 (ip), vehicle: saline
[7] = dose: 400.0 mg/kg/injection, schedule: Q01DX009 (ip), vehicle: Klucel (hydroxypropylcellulose) (HPC)
[8] = dose: 25.0 mg/kg/injection, schedule: Q01DX009 (ip), vehicle: saline with Tween-80
[9] = dose: 50.0 mg/kg/injection, schedule: Q01DX009 (ip), vehicle: saline with Tween-80
[10] = dose: 100.0 mg/kg/injection, schedule: Q01DX009 (ip), vehicle: saline with Tween-80
[11] = dose: 200.0 mg/kg/injection, schedule: Q01DX009 (ip), vehicle: saline with Tween-80
[12] = dose: 400.0 mg/kg/injection, schedule: Q01DX009 (ip), vehicle: saline with Tween-80
[13] = dose: 0.39 mg/kg/injection, schedule: Q01DX009 (ip), vehicle: Klucel (hydroxypropylcellulose) (HPC)
[14] = dose: 0.78 mg/kg/injection, schedule: Q01DX009 (ip), vehicle: Klucel (hydroxypropylcellulose) (HPC)
[15] = dose: 1.56 mg/kg/injection, schedule: Q01DX009 (ip), vehicle: Klucel (hydroxypropylcellulose) (HPC)
[16] = dose: 3.12 mg/kg/injection, schedule: Q01DX009 (ip), vehicle: Klucel (hydroxypropylcellulose) (HPC)

Measured: T/C

CCC(C)c1ccccc1OC(=O)Nc1ccc(OC)cc1 (stereo not given)
inactive: [1] 100 % of control | dose: 50.0 mg/kg/injection, schedule: Q04DX003 (ip), vehicle: Klucel (hydroxypropylcellulose) (HPC) 106 % of control | [2] 103 % of control | dose: 100.0 mg/kg/injection, schedule: Q04DX003 (ip), vehicle: Klucel (hydroxypropylcellulose) (HPC) 106 % of control | [3] 100 % of control | dose: 200.0 mg/kg/injection, schedule: Q04DX003 (ip), vehicle: Klucel (hydroxypropylcellulose) (HPC) 103 % of control

CC[N+](CC)(CC)CCC[n+]1ccc(/C=N\O)cc1
inactive: [4] 111 % of control | [5] 111 % of control | [6] 111 % of control

CC(C)CC(NC(=O)OCc1ccccc1)C(=O)NC(Cc1ccccc1)C(=O)CCl (stereo not drawn) (Cbz-Leu-Phe-CH2Cl; configuration not given here)
inactive: dose: 1.56 mg/kg/injection, schedule: Q01DX009 (ip), vehicle: saline 99 % of control | dose: 3.12 mg/kg/injection, schedule: Q01DX009 (ip), vehicle: saline 99 % of control | dose: 6.25 mg/kg/injection, schedule: Q01DX009 (ip), vehicle: saline 97 % of control

CCCCOC(OCCCC)C(C)=O
inactive: [2] 96 % of control | [3] 93 % of control | [7] 93 % of control

C=C1C(=O)OC2CC3(C)CC(O)C(O)C(=C)C3CC12 (stereo not given)
inactive: [1] 104 % of control | [2] 101 % of control

C=CC(C(=O)OCC)C(O)CCC (stereo not given)
inactive: [1] 121 % of control | [2] 100 % of control | [3] 101 % of control

COc1ccc(C(OC2OC(n3cnc4c(=S)nc(N)[nH]c43)CC2OC(C)=O)(c2ccccc2)c2ccc(OC)cc2)cc1 (stereo not given)
inactive: [2] 90 % of control | [3] 96 % of control | [7] 93 % of control

CC/C(C)=C1\OC(=O)C(C)C(O)C(Cc2cccnc2)NC(=O)C(NC(=O)c2ncccc2O)C(C)OC1=O (stereo not given)
inactive: dose: 0.75 mg/kg/injection, schedule: Q01DX009 (ip), vehicle: Klucel (hydroxypropylcellulose) (HPC) 118 % of control | dose: 1.5 mg/kg/injection, schedule: Q01DX009 (ip), vehicle: Klucel (hydroxypropylcellulose) (HPC) 98 % of control | dose: 3.0 mg/kg/injection, schedule: Q01DX009 (ip), vehicle: Klucel (hydroxypropylcellulose) (HPC) 99 % of control | dose: 6.25 mg/kg/injection, schedule: Q01DX009 (ip), vehicle: saline with Tween-80 87 % of control | dose: 12.5 mg/kg/injection, schedule: Q01DX009 (ip), vehicle: saline with Tween-80 97 % of control | [8] 96 % of control

CC(C)CNC(=O)c1ccc(N=NN(C)Cc2ccncc2)cc1
inactive: [8] 93 % of control | [9] 97 % of control | [10] 103 % of control

Cc1c(O)c2c(c(O)c1Cc1ccc(CN)cc1)C(=O)c1ccccc1C2=O
inactive: dose: 0.78 mg/kg/injection, schedule: Q01DX009 (ip), vehicle: water 109 % of control | dose: 1.56 mg/kg/injection, schedule: Q01DX009 (ip), vehicle: water 109 % of control | dose: 3.13 mg/kg/injection, schedule: Q01DX009 (ip), vehicle: water 98 % of control | dose: 6.25 mg/kg/injection, schedule: Q01DX009 (ip), vehicle: water 93 % of control

CNC(=O)CCCCC(=O)NC
inactive: [9] 102 % of control | [10] 116 % of control | [11] 124 % of control | [12] 115 % of control

CN(C)CCOc1ccccc1Cc1ccccc1
inactive: dose: 12.5 mg/kg/injection, schedule: Q01DX009 (ip), vehicle: saline 121 % of control | [4] 106 % of control and 107 % of control | [5] 95 % of control and 100 % of control | [6] 105 % of control | dose: 200.0 mg/kg/injection, schedule: Q01DX009 (ip), vehicle: saline 94 % of control

O=C1CN=C(c2ccccc2Cl)c2cc(Cl)ccc2N1
inactive: dose: 0.01 mg/kg/injection, schedule: Q01DX009 (ip), vehicle: Klucel (hydroxypropylcellulose) (HPC) 100 % of control | dose: 0.02 mg/kg/injection, schedule: Q01DX009 (ip), vehicle: Klucel (hydroxypropylcellulose) (HPC) 86 % of control | dose: 0.04 mg/kg/injection, schedule: Q01DX009 (ip), vehicle: Klucel (hydroxypropylcellulose) (HPC) 86 % of control | dose: 0.09 mg/kg/injection, schedule: Q01DX009 (ip), vehicle: Klucel (hydroxypropylcellulose) (HPC) 86 % of control | [13] 91 % of control | [14] 88 % of control | [15] 86 % of control | [16] 89 % of control | [3] 90 % of control | dose: 0.6 micrograms/kg/injection, schedule: Q01DX009 (ip), vehicle: Klucel (hydroxypropylcellulose) (HPC) 111 % of control | dose: 1.2 micrograms/kg/injection, schedule: Q01DX009 (ip), vehicle: Klucel (hydroxypropylcellulose) (HPC) 104 % of control | dose: 2.5 micrograms/kg/injection, schedule: Q01DX009 (ip), vehicle: Klucel (hydroxypropylcellulose) (HPC) 105 % of control | dose: 5.0 micrograms/kg/injection, schedule: Q01DX009 (ip), vehicle: Klucel (hydroxypropylcellulose) (HPC) 95 % of control | dose: 10.0 micrograms/kg/injection, schedule: Q01DX009 (ip), vehicle: Klucel (hydroxypropylcellulose) (HPC) 112 % of control

COC1C=COC2(C)Oc3c(C)c(O)c4c(c3C2=O)/C(=N/C2CCC(O)OC2C)C=C(NC(=O)/C(C)=C\C(=O)C2CC2C(O)C(C)C(O)C(C)C(OC(C)=O)C1C)C4=O (stereo not given)
inactive: dose: 4.6 mg/kg/injection, schedule: Q01DX009 (ip), vehicle: saline with Tween-80 98 % of control | dose: 18.5 mg/kg/injection, schedule: Q01DX009 (ip), vehicle: saline with Tween-80 97 % of control

CCOC(=O)C1C(=O)CC(=O)C(C(=O)OCC)C1c1ccc(O)cc1 (stereo not given)
inactive: [2] 100 % of control | [3] 93 % of control | [7] 103 % of control

COc1cc2ccc(CCNCc3ccccc3)cc2cc1OC
inactive: dose: 50.0 mg/kg/injection, schedule: Q04DX003 (ip), vehicle: saline 92 % of control | dose: 100.0 mg/kg/injection, schedule: Q04DX003 (ip), vehicle: saline 94 % of control

CC(Cc1ccccc1)NC(=O)CCNNC(=O)c1ccncc1 (stereo not given)
inactive: [13] 95 % of control | [14] 87 % of control | [15] 90 % of control | [16] 95 % of control | dose: 6.25 mg/kg/injection, schedule: Q01DX009 (ip), vehicle: Klucel (hydroxypropylcellulose) (HPC) 89 % of control | dose: 12.5 mg/kg/injection, schedule: Q01DX009 (ip), vehicle: Klucel (hydroxypropylcellulose) (HPC) 91 % of control

Cc1cccc(C)c1NC(=O)c1ccccc1C(=O)O
inactive: [10] 97 % of control | [11] 92 % of control | [12] 95 % of control
